Tests used:
Settings in all cases: synthetic library passage 3, intravenous, relative to wild-type AAV9
brain [1] = test: NGS fold enrichment of synthetic library (passage 3) in C57Bl/6 mice, first cross-species screen; assay type: in vivo
Summary of the method: (§1)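 Passage-3 synthetic capsid library given intravenously […] to NHPs (2-4 years) and BALB/c or C57Bl/6 mice (n=3, 6-8 weeks). After e.g. 28 days, tissue RNA was RT-PCR amplified and NGS-sequenced; values are fold enrichment of each variant relative to wild-type AAV9.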

[2] = system: brain, spinal cord, and DRG of the NHPs; test: NGS fold enrichment of synthetic library (passage 3) in NHPs, first cross-species screen; assay type: in vivo, cynomolgus macaques (Macaca fascicularis)
Summary of the method: as §1

brain [3] = test: NGS fold enrichment of synthetic library (passage 3) in BALB/c mice, first cross-species screen; assay type: in vivo
Summary of the method: as §1

[4] = RNA from brain of C57Bl/6 mice, NGS
[5] = RNA from spinal cord of NHPs, NGS
[6] = RNA from brain of BALB/c mice, NGS

Sequence	Fold enrichment over AAV9 in the brain of Mice (C57Bl/6) (brain [1]; RNA NGS, brain of C57Bl/6 mice) [fold]	Fold enrichment over AAV9 in the brain of NHPs ([2]; RNA NGS, brain of NHPs) [fold]	Fold enrichment over AAV9 in the spinal cord of NHPs ([2]; RNA NGS, spinal cord of NHPs) [fold]	Fold enrichment over AAV9 in the brain of Mice (BALB/c) (brain [3]; RNA NGS, brain of BALB/c mice) [fold]	Fold enrichment over AAV9 in the brain of Mice (C57Bl/6) (brain [1]; [4]) [fold]	Fold enrichment over AAV9 in the brain of NHPs ([2]; RNA from brain of NHPs, NGS) [fold]	Fold enrichment over AAV9 in the spinal cord of NHPs [2, 5] [fold]	Fold enrichment over AAV9 in the brain of Mice (BALB/c) (brain [3]; [6]) [fold]
GREYGHKSGQNQQT	1.422	3.453	0.000	0.959				
GRGAVMASGQNQQT	0.783	1.072	0.923	0.605				
GRGGIPQSGQNQQT	1.639	2.352	8.683	1.181				
GRGGSMAETQNQQT	0.799	1.024	2.853	0.669				
GRGPKQSNIQNQQT					0.771	1.125	0.737	2.490
GRGQHVSVANNQQT					1.032	1.152	1.896	0.589
GRGQIYSTGGNQQT	1.329	2.210	11.629	0.743				
GRGQNQQHTGLATT	1.134	1.650	6.174	0.691				
GRGQNVSSVHRQQT	1.206	5.404	0.000	0.691				
GRGQVVSTHQNQQT	0.931	1.607	3.318	0.561				
GRGVITSSGQNHQT	1.656	2.004	0.864	0.669				
GRGVQQKLQQNQQT	1.974	1.817	0.000	0.823				
GRHLVTASGQNQQT	0.648	1.411	2.885	0.404				
GRLSNAHGGQNQQT					1.036	1.245	0.839	0.725
GRMFSLGSGQNQQT	1.630	1.836	8.429	1.174				
GRTDSHTSGQNQQT	1.299	2.913	1.510	0.704				

Sequence	Fold enrichment over AAV9 in the brain of Mice (C57Bl/6) (brain [1]; RNA NGS, brain of C57Bl/6 mice) [fold]	Fold enrichment over AAV9 in the brain of NHPs ([2]; RNA NGS, brain of NHPs) [fold]	Fold enrichment over AAV9 in the spinal cord of NHPs ([2]; RNA NGS, spinal cord of NHPs) [fold]	Fold enrichment over AAV9 in the brain of Mice (BALB/c) (brain [3]; RNA NGS, brain of BALB/c mice) [fold]	Fold enrichment over AAV9 in the brain of Mice (C57Bl/6) (brain [1]; [4]) [fold]	Fold enrichment over AAV9 in the brain of NHPs ([2]; RNA from brain of NHPs, NGS) [fold]	Fold enrichment over AAV9 in the spinal cord of NHPs [2, 5] [fold]	Fold enrichment over AAV9 in the brain of Mice (BALB/c) (brain [3]; [6]) [fold]
GRVLHSHAGQNQQT	1.294	2.513	0.826	0.908				
GSAAMSVRGQNQQT	0.202	1.029	2.386	0.287				
GSAGISPSGQNQQT	0.784	1.797	1.812	0.622				
GSAQVSMVGQNQQT	0.500	1.601	1.332	0.285				
GSDFLGTHGQNQQT	1.038	3.171	0.348	0.750				
GSDGKMHRGQNQQT					1.826	1.227	0.000	0.776
GSDHSHRGGQNQQT					0.818	1.174	0.504	0.331
GSDQNQQLGYSKQT					0.853	1.283	0.000	0.660
GSDQNQQTMSSTRT	1.306	1.003	2.428	0.835				
GSDQNQRLTSSMQT	0.875	1.479	0.164	0.670				
GSDQSKRGDSNQQT					0.479	1.225	0.639	0.267
GSEQTRQRGQNQQT					0.574	1.333	2.172	0.815
GSEQTRQSGQNQQT					0.734	1.321	0.514	0.900
GSEYGHKSGQNQQT	5.198	6.308	2.750	5.332				
GSFSMGYGGQNQQT					1.908	1.393	18.476	1.030

Reference: patent US20260250318A1, “COMPOSITIONS AND METHODS FOR CROSSING THE BLOOD BRAIN BARRIER” (VOYAGER THERAPEUTICS, INC., priority 2022, published 2026)
